From patent US9956293B2, “Targeted therapeutics” (Madrigal Pharmaceuticals, Inc., priority 2014, dated 2018)

tested on: HER2; test: HER2 degradation assay with BT-474 cell line (Example 12, FACS); assay type: cell-based; settings: Homo sapiens, BT-474; SDC-TRAPs of the 41st table
Text: HER2 Degradation Assay with BT-474 Cell Line
HER2 has emerged as a key target for anticancer drugs due to its intrinsic involvement in the phosphatidylinositol-3-kinase-Akt/protein kinase B (PI3K-Akt) and the mitogen-activated protein kinase (MAPK) pathways, both of which suppress apoptosis and promote tumor cell survival, gene transcription, angiogenesis, cellular proliferation, migration, mitosis, and differentiation. The degradation of HER2 is a measure of efficacy of anticancer therapeutics that target Hsp90. Accordingly, the SDC-TRAP molecules of the invention that comprise a binding moiety that binds Hsp90 were tested in the following HER2 degradation assay.
BT-474 cells (human breast cancer cell line ATCC HTB-20) were obtained from ATCC and seeded into 12-well tissue culture plates at 0.2×10^6/1.8 mL/well. […] Each test compound was titrated in 4-fold dilutions from 5 μM to 78 nM with DMSO and 200 μL of the titration was added to each well of the cell plate. The DMSO final concentration was 0.2%. Cells were incubated overnight at 37° C. in 5% CO2.
Media was decanted from the plate, cells were washed 1× in PBS. 400 μL trypsin (EDTA) per well was added, and the cells were incubated for 2 to 3 minutes. Cells were collected into FACS tubes containing 1 ml culture medium to neutralize the trypsin and were centrifuged for 5 minutes at 1200 rpm. Supernatant was decanted and the cells were resuspended in 5 μL FITC (anti HER2/nu)/200 μL staining buffer (1×PBS+1% FBS+0.05% Sodium Azide)/tube. Controls were […] IgG isotype control and staining buffer only. Tubes were incubated for 30 minutes in the dark at room temperature. 1 mL staining buffer was added to each tube and the tubes were centrifuged for 6 minutes at 1200 rpm. The supernatant was decanted and 300 μL staining buffer was added to each tube, which was store at 4° C. for FACS (cytometer) analysis. The cytometer readout was normalized and the potency of each compound is evaluated with IC50 calculated with XLfit™ software.

Structure (SMILES) | IC50 [µM]
CC(C)c1cc(-c2nnc(O)n2-c2ccc(CN3CCN(C(=O)c4ccc(CCc5c[nH]c6nc(N)[nH]c(=O)c56)cc4)CC3)cc2)c(O)cc1O [SDC-TRAP-0068, 2-amino-5-(4-(4-(4-(3-(2,4-dihydroxy-5-isopropylphenyl)-5-hydroxy-4H-1,2,4-triazol-4-yl)benzyl)piperazine-1-carbonyl)phenethyl)-3H-pyrrolo[2,3-d]pyrimidin-4(7H)-one] | 0.262
CC(C)c1cc(-c2nnc(O)n2-c2ccc(N3CCN(C(=O)c4ccc(CCc5c[nH]c6nc(N)[nH]c(=O)c56)cc4)CC3)cc2)c(O)cc1O [SDC-TRAP-0082, 2-amino-5-(4-(4-(4-(3-(2,4-dihydroxy-5-isopropylphenyl)-5-hydroxy-4H-1,2,4-triazol-4-yl)phenyl)piperazine-1-carbonyl)phenethyl)-3H-pyrrolo[2,3-d]pyrimidin-4(7H)-one] | 1.04
CC(C)c1cc(-c2nnc(O)n2-c2ccc3c(c2)nc(C2CCN(C(=O)c4ccc(CCc5c[nH]c6nc(N)[nH]c(=O)c56)cc4)CC2)n3C)c(O)cc1O [SDC-TRAP-0102, 2-amino-5-(4-(4-(5-(3-(2,4-dihydroxy-5-isopropylphenyl)-5-hydroxy-4H-1,2,4-triazol-4-yl)-1-methyl-1H-benzo[d]imidazol-2-yl)piperidine-1-carbonyl)phenethyl)-3H-pyrrolo[2,3-d]pyrimidin-4(7H)-one] | > 5
CC(C)c1cc(-c2nnc(O)n2-c2ccc(CC3CCN(CC4CCN(C(=O)c5ccc(CCc6c[nH]c7nc(N)[nH]c(=O)c67)cc5)CC4)CC3)cc2)c(O)cc1O [SDC-TRAP-0103, 2-amino-5-(4-(4-((4-(4-(3-(2,4-dihydroxy-5-isopropylphenyl)-5-hydroxy-4H-1,2,4-triazol-4-yl)benzyl)piperidin-1-yl)methyl)piperidine-1-carbonyl)phenethyl)-3H-pyrrolo[2,3-d]pyrimidin-4(7H)-one] | 0.245

The next lines start with the values.

IC50 [µM] | Structure (SMILES)
1.01 | CC(C)c1cc(-c2nnc(O)n2-c2ccc(CN3CCN(C(=O)c4ccc(CCc5c[nH]c6nc(N)[nH]c(=O)c56)cc4)CC3)c(F)c2)c(O)cc1O [SDC-TRAP-0078, 2-amino-5-(4-(4-(4-(3-(2,4-dihydroxy-5-isopropylphenyl)-5-hydroxy-4H-1,2,4-triazol-4-yl)-2-fluorobenzyl)piperazine-1-carbonyl)phenethyl)-3H-pyrrolo[2,3-d]pyrimidin-4(7H)-one]
> 5 | CC(C)c1cc(-c2nnc(O)n2-c2ccc3c(c2)CN(C(=O)c2ccc(CCc4c[nH]c5nc(N)[nH]c(=O)c45)cc2)C3)c(O)cc1O [SDC-TRAP-0093, 2-amino-5-(4-(5-(3-(2,4-dihydroxy-5-isopropylphenyl)-5-hydroxy-4H-1,2,4-triazol-4-yl)isoindoline-2-carbonyl)phenethyl)-3H-pyrrolo[2,3-d]pyrimidin-4(7H)-one]

same assay, conditions: Homo sapiens, BT-474; SDC-TRAPs of the 43rd table

Structure (SMILES) | IC50 [µM]
CCc1c2c(nc3ccc(O)cc13)-c1cc3c(c(=O)n1C2)COC(=O)C3(CC)OC(=O)N(C)CCCCN1CCN(Cc2ccc(-n3c(O)nnc3-c3cc(C(C)C)c(O)cc3O)cc2)CC1 (stereo not shown) [SDC-TRAP-0055, 4,11-diethyl-9-hydroxy-3,14-dioxo-3,4,12,14-tetrahydro-1H-pyrano[3′,4′:6,7]indolizino[1,2-b]quinolin-4-yl (4-(4-(4-(3-(2,4-dihydroxy-5-isopropylphenyl)-5-hydroxy-4H-1,2,4-triazol-4-yl)benzyl)piperazin-1-yl)butyl)(methyl)carbamate] | 0.402
CCc1c2c(nc3ccc(OCCN4CCN(c5ccc(-n6c(O)nnc6-c6cc(C(C)C)c(O)cc6O)cc5)CC4)cc13)-c1cc3c(c(=O)n1C2)COC(=O)C3(O)CC (stereo not shown) [SDC-TRAP-0057, 9-(2-(4-(4-(3-(2,4-dihydroxy-5-isopropylphenyl)-5-hydroxy-4H-1,2,4-triazol-4-yl)phenyl)piperazin-1-yl)ethoxy)-4,11-diethyl-4-hydroxy-1H-pyrano[3′,4′:6,7]indolizino[1,2-b]quinoline-3,14(4H,12H)-dione] | 0.449
CCc1c2c(nc3ccc(OCCn4ccc5cc(-n6c(O)nnc6-c6cc(C(C)C)c(O)cc6O)ccc54)cc13)-c1cc3c(c(=O)n1C2)COC(=O)C3(O)CC (stereo not shown) [SDC-TRAP-0058, 9-(2-(5-(3-(2,4-dihydroxy-5-isopropylphenyl)-5-hydroxy-4H-1,2,4-triazol-4-yl)-1H-indol-1-yl)ethoxy)-4,11-diethyl-4-hydroxy-1H-pyrano[3′,4′:6,7]indolizino[1,2-b]quinoline-3,14(4H,12H)-dione] | 2.93
CCc1c2c(nc3ccc(OCC(=O)N4CCN(Cc5ccc(-n6c(O)nnc6-c6cc(C(C)C)c(O)cc6O)cc5)CC4)cc13)-c1cc3c(c(=O)n1C2)COC(=O)C3(O)CC (stereo not shown) [SDC-TRAP-0077, 9-(2-(4-(4-(3-(2,4-dihydroxy-5-isopropylphenyl)-5-hydroxy-4H-1,2,4-triazol-4-yl)benzyl)piperazin-1-yl)-2-oxoethoxy)-4,11-diethyl-4-hydroxy-1H-pyrano[3′,4′:6, 7]indolizino[1,2-b]quinoline-3,14(4H,12H)-dione] | 2.79

same assay, conditions: Homo sapiens, BT-474; SDC-TRAPs of the 52nd table

IC50 [µM] | Structure (SMILES)
0.677 | COc1ccc(-c2cnoc2-c2cc(OC)c(OC)c(OC)c2)cc1OC(=O)N1CCN(c2ccc(-n3c(O)nnc3-c3cc(C(C)C)c(O)cc3O)cc2)CC1 [SDC-TRAP-0099, 2-methoxy-5-(5-(3,4,5-trimethoxyphenyl)isoxazol-4-yl)phenyl-4-(4-(3-(2,4-dihydroxy-5-isopropylphenyl)-5-hydroxy-4H-1,2,4-triazol-4-yl)phenyl)piperazine-1-carboxylate]

same assay, conditions: Homo sapiens; BT-474 cells

IC50 [µM] | Structure (SMILES)
> 5 | CC(C)c1cc(-c2nnc(O)n2-c2ccc3c(ccn3CCNC(=O)Cn3cc(F)c(=O)[nH]c3=O)c2)c(O)cc1O [SDC-TRAP-0013, N-(2-(5-(3-(2,4-dihydroxy-5-isopropylphenyl)-5-hydroxy-4H-1,2,4-triazol-4-yl)-1H-indol-1-yl)ethyl)-2-(5-fluoro-2,4-dioxo-3,4-dihydropyrimidin-1(2H)-yl) acetamide]
> 5 | CC(C)c1cc(-c2nnc(O)n2-c2ccc3c(ccn3CCOCCNC(=O)CCn3cc(F)c(=O)[nH]c3=O)c2)c(O)cc1O [SDC-TRAP-0048, N-(2-(2-(5-(3-(2,4-dihydroxy-5-isopropylphenyl)-5-hydroxy-4H-1,2,4-triazol-4-yl)-1H-indol-1-yl)ethoxy)ethyl)-3-(5-fluoro-2,4-dioxo-3,4-dihydropyrimidin-1(2H)-yl)propanamide]
> 5 | CC(C)c1cc(-c2nnc(O)n2-c2ccc(CN3CCN(C(=O)CCn4cc(F)c(=O)[nH]c4=O)CC3)cc2)c(O)cc1O [SDC-TRAP-0049, 1-(3-(4-(4-(3-(2,4-dihydroxy-5-isopropylphenyl)-5-hydroxy-4H-1,2,4-triazol-4-yl)benzyl)piperazin-1-yl)-3-oxopropyl)-5-fluoropyrimidine-2,4(1H,3H)-dione]
> 5 | CC(C)c1cc(-c2nnc(O)n2-c2ccc3c(ccn3CCOCCN(C)C(=O)CCn3cc(F)c(=O)[nH]c3=O)c2)c(O)cc1O [SDC-TRAP-0050, N-(2-(2-(5-(3-(2,4-dihydroxy-5-isopropylphenyl)-5-hydroxy-4H-1,2,4-triazol-4-yl)-1H-indol-1-yl)ethoxy)ethyl)-3-(5-fluoro-2,4-dioxo-3,4-dihydropyrimidin-1(2H)-yl)-N-methylpropanamide]
> 5 | CC(C)c1cc(-c2nnc(O)n2-c2ccc3c(ccn3CCN(C)C(=O)CCn3cc(F)c(=O)[nH]c3=O)c2)c(O)cc1O [SDC-TRAP-0051, N-(2-(5-(3-(2,4-dihydroxy-5-isopropylphenyl)-5-hydroxy-4H-1,2,4-triazol-4-yl)-1H-indol-1-yl)ethyl)-3-(5-fluoro-2,4-dioxo-3,4-dihydropyrimidin-1(2H)-yl)-N-methylpropanamide]
